According to patent US7888349B2, “Piperazine, [1,4]Diazepane, [1,4]Diazocane, and [1,5]Diazocane fused imidazo ring compounds” (3M Innovative Properties Company, priority 2003, dated 2011):
Where a name gives a salt, the structure may show the parent alone.

Compound	melting point [°C]
CS(=O)(=O)N1CCn2c(nc3c(N)nc4cc(OCc5ccccc5)ccc4c32)C1 [Example 368, 3-(Benzyloxy)-9-(methylsulfonyl)-8,9,10,11-tetrahydropyrazino[1′,2′:1,2]imidazo[4,5-c]quinolin-6-amine]	266 to 268
CS(=O)(=O)N1CCCn2c(nc3c(N)nc4cc(-c5cccnc5)ccc4c32)C1 [Example 366, 9-(Methylsulfonyl)-3-pyridin-3-yl-9,10,11,12-tetrahydro-8H-[1,4]diazepino[1′,2′:1,2]imidazo[4,5-c]quinolin-6-amine]	302
CS(=O)(=O)N1CCn2c(nc3c(N)nc4cc(Br)ccc4c32)C1 [Example 367, 3-Bromo-9-(methylsulfonyl)-8,9,10,11-tetrahydropyrazino[1′,2′:1,2]imidazo[4,5-c]quinolin-6-amine]	315 to 317
CS(=O)(=O)N1CCCn2c(nc3c(N)nc4cc(OCc5ccccc5)ccc4c32)C1 [Example 369, 3-(Benzyloxy)-9-(methylsulfonyl)-9,10,11,12-tetrahydro-8H-[1,4]diazepino[1′,2′:1,2]imidazo[4,5-c]quinolin-6-amine]	235 to 236
CS(=O)(=O)N1CCCn2c(nc3c(N)nc4c(c32)CCCC4)C1 [Example 363, 9-(Methylsulfonyl)-2,3,4,8,9,10,11,12-octahydro-1H-[1,4]diazepino[1′,2′:1,2]imidazo[4,5c]quinolin-6-amine]	270 to 272
CC(C)(C)OC(=O)N1CCCn2c(nc3c(N)nc4ccccc4c32)C1 [Example 6, tert-Butyl 6-amino-11,12-dihydro-8H-[1,4]diazepino[1′,2′:1,2]imidazo[4,5-c]quinoline-9(10H)-carboxylate]	213
CC(C)(C)OC(=O)N1CCn2c(nc3c(N)nc4ccccc4c32)C1 [Example 4, tert-Butyl 6-amino-10,11-dihydropyrazino[1′,2′:1,2]imidazo[4,5-c]quinoline-9(8H)-carboxylate]	207
CC1(C)Cn2c(nc3c(N)nc4ccccc4c32)CN1S(C)(=O)=O [Example 3, 10,10-Dimethyl-9-(methylsulfonyl)-8,9,10,11-tetrahydropyrazino[1′,2′:1,2]imidazo[4,5-c]quinolin-6-amine]	227 to 228
CS(=O)(=O)N1CCCn2c(nc3c(N)nc4cc(Br)ccc4c32)C1 [Example 365, 3-Bromo-9-(methylsulfonyl)-9,10,11,12-tetrahydro-8H-[1,4]diazepino[1′,2′:1,2]imidazo[4,5-c]quinolin-6-amine]	303

The next lines start with the values.

melting point [°C]	Compound
250 to 250.9	CS(=O)(=O)N1CCCn2c(nc3c(N)nc4ccccc4c32)C1 (as salt: trifluoroacetate) [Example 7, 9-(Methylsulfonyl)-9,10,11,12-tetrahydro-8H-[1,4]diazepino[1′,2′:1,2]imidazo[4,5-c]quinolin-6-amine trifluoroacetate]
256 to 258	CC(C)(C)[Si](C)(C)OC1CN(S(C)(=O)=O)Cc2nc3c(N)nc4ccccc4c3n2C1 (centres unmarked) [Example 1, 11-{[tert-Butyl(dimethyl)silyl]oxy}-9-(methylsulfonyl)-9,10,11,12-tetrahydro-8H-[1,4]diazepino[1′,2′:1,2]imidazo[4,5-c]quinolin-6-amine]
282 to 283	CS(=O)(=O)N1Cc2nc3c(N)nc4ccccc4c3n2CC(O)C1 (centres unmarked) [Example 2, 6-Amino-9-(methylsulfonyl)-9,10,11,12-tetrahydro-8H-[1,4]diazepino[1′,2′:1,2]imidazo[4,5-c]quinolin-11-ol]
242 to 243	CS(=O)(=O)N1CCn2c(nc3c(N)nc4ccccc4c32)C1 (as salt: trifluoroacetate) [Example 5, 9-(Methylsulfonyl)-8,9,10,11-tetrahydropyrazino[1′,2′:1,2]imidazo[4,5-c]quinolin-6-amine trifluoroacetate]
280	CS(=O)(=O)N1CCCn2c(nc3c(N)nc4ccccc4c32)C1 [Example 8, 9-(Methylsulfonyl)-9,10,11,12-tetrahydro-8H-[1,4]diazepino[1′,2′:1,2]imidazo[4,5-c]quinolin-6-amine]
